We go through eight molecules from ChEMBL document CHEMBL1201862, “PubChem BioAssay data set” (2004).

Among the test systems are ACHN; CAKI-1; CCRF-CEM; DU-145; HCT-15; HL-60; MCF7; Malme-3M; NCI-H226; OVCAR-3; OVCAR-4; OVCAR-5; SF-268; SF-295; SN12C; TK-10; U-251; UACC-257; UACC-62; UO-31.
Holding throughout (experiment): NCI anticancer screen, dose series, 48 h

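48-hour exposure; five concentrations; linearly interpolated endpoints. At the GI50, growth is halved.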 Active and inactive are the calls of the source. Cut-off read from the data, not from the text of the source: active = GI50 up to about 1.1 µM and inactive = higher.

`Cc1cn(C2CC(n3cc(Cn4cc(F)c(=O)[nH]c4=O)nn3)C(CO)O2)c(=O)[nH]c1=O` (configuration not stated): the GI50 in the assay with ACHN was > 100 µM (inactive); with CAKI-1, > 100 µM (inactive); with CCRF-CEM it was > 100 µM (inactive); in the assay on DU-145 it was > 100 µM (inactive); in the assay with HCT-15 it was above 100 µM; in the assay on HL-60, 43.7 µM (inactive). Further, the GI50 in the assay with MCF7, with Malme-3M, with NCI-H226, in the assay on OVCAR-3, in the assay on OVCAR-4 and with OVCAR-5 was > 100 µM (inactive) in each case. Moreover, the GI50 in the assay on SF-268, in the assay with SF-295, in the assay on SN12C, in the assay with TK-10, in the assay with U-251 and in the assay with UACC-257 was > 100 µM (inactive) throughout. The GI50 in the assay on UACC-62 and in the assay with UO-31 was > 100 µM (inactive) each time.

With `COC(=O)c1cc(C)ccc1C1CN=NC12Cc1c(C)cc(C)cc1C2=O` (configuration not stated), the GI50 with ACHN is 40.5 µM (inactive); in the assay with CAKI-1 it was 31.4 µM (inactive); in the assay on CCRF-CEM, 26.5 µM (inactive); in the assay on DU-145, 28.4 µM (inactive); in the assay with HCT-15, 22.5 µM; in the assay with HL-60 it was 6.1 µM (inactive). Moreover, the GI50 in the assay on MCF7 is 20.6 µM (inactive); with Malme-3M it was 11.8 µM (inactive); in the assay with NCI-H226, 35.8 µM (inactive); in the assay on OVCAR-3 it was 14.9 µM (inactive); in the assay on OVCAR-4 it was 16.9 µM (inactive); in the assay on OVCAR-5 it was 29.4 µM (inactive). In addition, the GI50 in the assay with SF-268 was 20.8 µM (inactive); with SF-295, 23.2 µM (inactive); with SN12C, 28.6 µM (inactive); with TK-10, 34.1 µM (inactive); with U-251, 27 µM (inactive); with UACC-257, 23.9 µM (inactive). Besides, the values for the GI50 in the assay with UACC-62 and in the assay on UO-31 were 16.9 µM (inactive) and 23 µM (inactive), respectively.

In the case of `CC(=O)OCC1OC(n2c(-c3ccccc3)c(C(C)=O)c(-c3ccc(Cl)cc3)c(C#N)c2=S)C(OC(C)=O)C(OC(C)=O)C1OC(C)=O` (configuration not stated), the GI50 was > 100 µM (inactive) in the assay on ACHN; 99.8 µM (inactive) with CAKI-1; 29.9 µM (inactive) with CCRF-CEM; > 100 µM (inactive) in the assay with DU-145; 11.6 µM in the assay on HCT-15; > 100 µM (inactive) in the assay on HL-60. Also, the GI50 in the assay on MCF7 was > 100 µM (inactive); in the assay on Malme-3M, > 100 µM (inactive); in the assay with NCI-H226 it was > 100 µM (inactive); with OVCAR-3, > 100 µM (inactive); in the assay on OVCAR-4 it was 83.8 µM (inactive); in the assay with OVCAR-5, > 100 µM (inactive). For the same molecule, the GI50 with SF-268 is 50.4 µM (inactive); in the assay on SF-295 it was > 100 µM (inactive); in the assay on SN12C, > 100 µM (inactive); with TK-10, > 100 µM (inactive); with U-251 it was > 100 µM (inactive); in the assay on UACC-257 it was > 100 µM (inactive). Moreover, the GI50 in the assay on UACC-62 was > 100 µM (inactive).

In the case of `CC(CC(C)[C@H]1CCC2[C@H]3C(CC(=O)[C@@]21C)[C@@]1(C)CCC(O)C[C@H]1C[C@@H]3O)C(=O)O` (some centres not stated), the GI50 with ACHN is > 100 µM (inactive); in the assay with CAKI-1, > 100 µM (inactive); in the assay on CCRF-CEM, 43.4 µM (inactive); in the assay with DU-145 it was > 100 µM (inactive); in the assay with HCT-15, 77.3 µM; in the assay on HL-60, 46.8 µM (inactive). The GI50 in the assay on MCF7 was 92.3 µM (inactive); in the assay with Malme-3M, > 100 µM (inactive); with NCI-H226 it was > 100 µM (inactive); in the assay with OVCAR-4 it was > 100 µM (inactive); in the assay on OVCAR-5, > 100 µM (inactive); with SF-268 it was > 100 µM (inactive). Further, the GI50 was > 100 µM (inactive) in the assay on SN12C; > 100 µM (inactive) in the assay on TK-10; > 100 µM (inactive) with U-251; > 100 µM (inactive) in the assay with UACC-257; > 100 µM (inactive) in the assay on UACC-62; 58.9 µM (inactive) in the assay with UO-31.

With `COc1cc(C=O)cc(/C=N/N=C/c2ccccc2O)c1O`, the GI50 with ACHN was 16.7 µM (inactive); in the assay on CAKI-1 it was 19.8 µM (inactive); in the assay on CCRF-CEM, 8.85 µM (inactive); in the assay on DU-145 it was 66.4 µM (inactive); in the assay on HCT-15, 40.1 µM; in the assay with HL-60, < 0.01 µM (active). Also, the GI50 was 64.7 µM (inactive) with MCF7; 3.97 µM (inactive) in the assay on Malme-3M; 16.6 µM (inactive) in the assay with NCI-H226; 25.5 µM (inactive) with OVCAR-3; > 100 µM (inactive) in the assay on OVCAR-4; 36.6 µM (inactive) in the assay with SF-268. In addition, the GI50 in the assay on SF-295 was 2.7 µM (inactive); in the assay with SN12C, 17.6 µM (inactive); in the assay with TK-10, 82.6 µM (inactive); in the assay with U-251, 29.8 µM (inactive); in the assay on UACC-257, 32.9 µM (inactive); in the assay with UACC-62 it was 28.4 µM (inactive). In the assay on UO-31, the GI50 is 24.6 µM (inactive).

`COc1ccc(/C=C2\N=C3NC(=O)C(N4CCCCC4)=C(N)N3C2=O)cc1`: the GI50 was 70.6 µM (inactive) in the assay on ACHN; > 100 µM (inactive) in the assay on CAKI-1; > 100 µM (inactive) with CCRF-CEM; > 100 µM (inactive) in the assay on DU-145; above 100 µM in the assay on HCT-15; 25.9 µM (inactive) with HL-60. The GI50 with MCF7, in the assay with Malme-3M, in the assay with NCI-H226, in the assay with OVCAR-4, in the assay on OVCAR-5 and in the assay with SF-268 was > 100 µM (inactive) each time. Besides, the GI50 in the assay with SF-295 was 73.6 µM (inactive); with SN12C, > 100 µM (inactive); in the assay with TK-10 it was 47 µM (inactive); with U-251 it was 52.8 µM (inactive); in the assay on UACC-257, > 100 µM (inactive); with UO-31, > 100 µM (inactive).

Regarding `CCOC(CCNCC(OCC)OCC)OCC`, the GI50 with ACHN was > 10 µM (inactive); with CAKI-1, > 10 µM (inactive); in the assay on CCRF-CEM it was > 10 µM (inactive); in the assay on DU-145, > 10 µM (inactive); with HCT-15, above 10 µM; in the assay on HL-60, > 10 µM (inactive). Further, the GI50 in the assay on MCF7, with Malme-3M, with NCI-H226, in the assay with OVCAR-3, in the assay on OVCAR-4 and in the assay on OVCAR-5 was > 10 µM (inactive) each time. Moreover, the GI50 in the assay with SF-268, with SF-295, in the assay with SN12C, with TK-10, with U-251 and with UACC-257 was > 10 µM (inactive) in each case. Moreover, the GI50 in the assay with UACC-62 was > 10 µM (inactive).

Regarding `COc1ccc(-n2c(=O)n(-c3ccccc3)c(=O)n2-c2ccc(OC)cc2)cc1`, the GI50 with ACHN was > 100 µM (inactive); with CAKI-1, 1.78 µM (inactive); in the assay on CCRF-CEM, > 100 µM (inactive); in the assay on DU-145 it was > 100 µM (inactive); with HCT-15 it was above 100 µM; in the assay on HL-60, > 100 µM (inactive). In addition, the GI50 in the assay with MCF7, in the assay with Malme-3M, in the assay on NCI-H226, with OVCAR-3, with OVCAR-4 and in the assay with OVCAR-5 was > 100 µM (inactive) throughout. For the same molecule, the GI50 with SF-295, in the assay with SN12C, in the assay on TK-10, in the assay on U-251, in the assay with UACC-257 and with UACC-62 was > 100 µM (inactive) throughout. In addition, in the assay on UO-31, the GI50 is > 100 µM (inactive).
